From article PMC9415638, “Discovery of novel thiazolyl-pyrazolines as dual EGFR and VEGFR-2 inhibitors endowed with in vitro antitumor activity towards non-small lung cancer” (Journal of Enzyme Inhibition and Medicinal Chemistry, 2022) come the findings set out here.

One series deals with EGFR (Homo sapiens, UniProt P00533). Nature of the series: EGFR kinase assay (PGT-coated 96-well plates). The series is classed as biochemical. To be noted: read-out: IC50 (nM) ± SEM EGFR. The protocol: (§1) The EGFR kinase assay was carried out in 96-well plates coated with PGT (poly l-glutamic acid l-tyrosine, 4:1, Sigma Aldrich, St. Louis, MO) as previously described. IC50 values were calculated using GraphPad Prism 5. Each experiment was carried out at least three times. The VEGFR-2 kinase assay was carried out in 96-well streptavidin coated plate using recombinant human VEGFR-2/KDR ELISA kit according to manufacturer’s instructions.
Chain of EGFR (P00533 25-1210): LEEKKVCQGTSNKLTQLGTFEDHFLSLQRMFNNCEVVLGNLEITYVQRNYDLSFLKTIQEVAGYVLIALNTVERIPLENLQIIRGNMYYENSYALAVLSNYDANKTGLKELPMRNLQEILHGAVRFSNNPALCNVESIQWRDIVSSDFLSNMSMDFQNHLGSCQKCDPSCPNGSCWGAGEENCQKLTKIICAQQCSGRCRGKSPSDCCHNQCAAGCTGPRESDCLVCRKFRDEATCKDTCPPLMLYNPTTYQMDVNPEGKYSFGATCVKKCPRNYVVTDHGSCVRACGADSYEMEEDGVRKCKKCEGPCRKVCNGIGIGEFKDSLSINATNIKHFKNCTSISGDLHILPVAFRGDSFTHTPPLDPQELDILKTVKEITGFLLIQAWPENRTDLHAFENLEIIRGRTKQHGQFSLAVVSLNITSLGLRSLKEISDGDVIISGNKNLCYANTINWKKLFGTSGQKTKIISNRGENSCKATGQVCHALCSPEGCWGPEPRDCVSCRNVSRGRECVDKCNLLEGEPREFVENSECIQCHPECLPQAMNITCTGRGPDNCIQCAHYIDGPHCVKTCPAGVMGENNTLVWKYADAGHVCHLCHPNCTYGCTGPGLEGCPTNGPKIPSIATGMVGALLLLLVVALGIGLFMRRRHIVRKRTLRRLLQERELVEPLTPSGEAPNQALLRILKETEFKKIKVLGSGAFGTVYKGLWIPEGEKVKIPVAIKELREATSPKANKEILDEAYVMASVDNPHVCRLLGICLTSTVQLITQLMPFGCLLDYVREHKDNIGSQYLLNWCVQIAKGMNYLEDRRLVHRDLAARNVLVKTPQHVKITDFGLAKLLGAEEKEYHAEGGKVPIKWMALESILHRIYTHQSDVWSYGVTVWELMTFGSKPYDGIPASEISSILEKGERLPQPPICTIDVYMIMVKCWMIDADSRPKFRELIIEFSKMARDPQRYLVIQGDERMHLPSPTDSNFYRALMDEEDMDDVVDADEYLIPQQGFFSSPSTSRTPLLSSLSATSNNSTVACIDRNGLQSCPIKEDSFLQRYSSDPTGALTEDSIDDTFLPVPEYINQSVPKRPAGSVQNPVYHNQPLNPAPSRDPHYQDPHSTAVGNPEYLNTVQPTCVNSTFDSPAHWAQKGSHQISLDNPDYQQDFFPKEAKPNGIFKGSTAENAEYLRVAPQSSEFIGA

In series [1] the target is T1, recombinant human VEGFR-2/KDR (Homo sapiens, UniProt P35968).
T1 construct: purchased
T1 sequence (P35968 20-1356): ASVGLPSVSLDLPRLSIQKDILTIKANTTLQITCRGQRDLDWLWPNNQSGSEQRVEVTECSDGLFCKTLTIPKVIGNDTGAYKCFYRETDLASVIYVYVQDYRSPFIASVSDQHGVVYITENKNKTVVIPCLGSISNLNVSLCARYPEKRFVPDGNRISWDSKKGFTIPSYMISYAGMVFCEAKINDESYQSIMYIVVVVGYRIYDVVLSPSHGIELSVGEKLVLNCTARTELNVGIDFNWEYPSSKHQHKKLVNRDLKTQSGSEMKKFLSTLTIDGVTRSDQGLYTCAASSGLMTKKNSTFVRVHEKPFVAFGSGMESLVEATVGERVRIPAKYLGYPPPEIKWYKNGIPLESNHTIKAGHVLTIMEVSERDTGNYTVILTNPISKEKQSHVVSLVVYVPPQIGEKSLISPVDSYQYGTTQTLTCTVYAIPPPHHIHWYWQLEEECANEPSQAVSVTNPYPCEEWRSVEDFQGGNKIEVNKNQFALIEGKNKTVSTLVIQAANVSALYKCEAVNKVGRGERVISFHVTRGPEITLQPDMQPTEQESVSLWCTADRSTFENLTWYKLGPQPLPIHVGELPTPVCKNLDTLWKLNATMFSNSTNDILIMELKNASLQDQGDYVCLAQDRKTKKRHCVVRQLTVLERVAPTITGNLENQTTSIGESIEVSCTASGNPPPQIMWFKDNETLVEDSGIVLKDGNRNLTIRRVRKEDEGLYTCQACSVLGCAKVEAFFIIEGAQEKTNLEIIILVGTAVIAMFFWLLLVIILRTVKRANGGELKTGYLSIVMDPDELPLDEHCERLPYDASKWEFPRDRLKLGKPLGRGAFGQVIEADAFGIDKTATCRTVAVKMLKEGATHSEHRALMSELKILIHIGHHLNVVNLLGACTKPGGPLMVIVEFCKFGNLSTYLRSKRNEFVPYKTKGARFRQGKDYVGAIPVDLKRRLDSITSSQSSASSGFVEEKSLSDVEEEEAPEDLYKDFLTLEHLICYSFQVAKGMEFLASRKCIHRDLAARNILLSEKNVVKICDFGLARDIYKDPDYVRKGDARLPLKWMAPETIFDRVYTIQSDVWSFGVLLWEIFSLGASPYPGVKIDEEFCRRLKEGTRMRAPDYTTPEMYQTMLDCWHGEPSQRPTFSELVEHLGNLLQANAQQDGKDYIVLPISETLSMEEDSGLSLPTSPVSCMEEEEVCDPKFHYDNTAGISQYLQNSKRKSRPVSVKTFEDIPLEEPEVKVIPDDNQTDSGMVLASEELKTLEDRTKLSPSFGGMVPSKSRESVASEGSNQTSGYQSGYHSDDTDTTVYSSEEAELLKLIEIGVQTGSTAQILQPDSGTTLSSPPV
Nature of the series: VEGFR-2 kinase assay (VEGFR-2/KDR ELISA kit). The series is classed as biochemical. To be noted: read-out: IC50 (nM) ± SEM VEGFR-2. On the procedure:
as §1

Series [2] concerns BT-549 breast cancer cells. Nature of the series: Anti-proliferative MTT assay. The series is classed as cell-based. The conditions noted are these: Homo sapiens, 24 h, read-out: % Growth inhibition ± SEM BT-549. On the procedure:
(§2) To evaluate the anti-proliferative activity of the synthesised thiazolyl-pyrazoline derivatives (7a–7d, 10a–10d, and 13a–13f), a preliminary in vitro one dose (10 µM) anticancer assay was performed. Nine cell lines derived from five tumour subpanels were examined; leukaemia (K562 and KG-1a), breast (MCF-7, BT-549 and HCC70), lung (A549 and H441), colon (HCT116) and liver (HepG2) cancer cell lines. The compounds were added at a single concentration (10 µM) and the cultures were incubated for 24 h, then the per cent growth inhibition (%GI) was calculated.
(§3) Human leukaemia (K562 and KG-1a), breast (MCF-7, BT-549 and HCC70), lung (A549, H441, NCI-H1650 and NCI-H1975), colon (HCT116), liver (HepG2) cancer cell lines and WI-38 human lung fibroblast cell line were obtained from the American Type Culture Collection (ATCC; Manassas, VA) and were cultured in their suitable media containing 10% foetal bovine serum (FBS; Sigma-Aldrich) in a humidified atmosphere with 5% CO2 at 37 °C. Gefitinib and vandetanib were purchased from Sigma-Aldrich. All chemicals used in this study were analytical or cell-culture grade.
(§4) Cytotoxicity was measured using the MTT assay. Human leukaemia (K562 and KG-1a), breast (MCF-7, BT-549 and HCC70), lung (A549, H441, NCI-H1650 and NCI-H1975), colon (HCT116), liver (HepG2) cancer cell lines and WI-38 human lung fibroblast cell line were plated at a density of 1 × 10^4 cells per well in 96-well plates overnight and then treated with the compounds. After 24 h treatment, 20 μL of MTT solution (2 mg/mL in phosphate-buffered saline [PBS]) was added to each well and the cells were cultured for another 4 h at 37 °C. The medium was aspirated and 150 μL DMSO was added to solubilise MTT formazan crystals. The plates were then shaken, and the optical density was determined at 570 nm using an ELISA plate reader (Model 550, Bio-Rad, Hercules, CA). At least three independent experiments were performed. The IC50 values were calculated using GraphPad Prism 5 (Version 5.01, GraphPad Software, San Diego, CA).

Series [3] concerns HCC70 breast cancer cells. Nature of the series: Anti-proliferative MTT assay. The series is classed as cell-based. To be noted: Homo sapiens, 24 h, read-out: % Growth inhibition ± SEM HCC70. On the procedure: as §2, §3, §4
The test system of series [4] is HCT116 colon cancer cells. Nature of the series: Anti-proliferative MTT assay. The series is classed as cell-based. To be noted: Homo sapiens, HCT-116, 24 h, read-out: % Growth inhibition ± SEM HCT116. On the procedure:
as §2, §3, §4

The next series deals with HepG2 liver cancer cells. Nature of the series: Anti-proliferative MTT assay. The series is classed as cell-based. The conditions noted are these: Homo sapiens, 24 h, read-out: % Growth inhibition ± SEM HepG2. The protocol:
as §2, §3, §4

A further series deals with K562 leukaemia cells. Nature of the series: Anti-proliferative MTT assay. The series is classed as cell-based. The conditions noted are these: Homo sapiens, 24 h, read-out: % Growth inhibition ± SEM K562. The protocol: as §2, §3, §4
Another series concerns KG-1a leukaemia cells. Nature of the series: Anti-proliferative MTT assay. The conditions noted are these: Homo sapiens, 24 h, read-out: % Growth inhibition ± SEM KG-1a. The series is classed as cell-based. On the procedure:
as §2, §3, §4

In series [5] the test system is MCF-7 breast cancer cells. Nature of the series: Anti-proliferative MTT assay. The series is classed as cell-based. The conditions noted are these: Homo sapiens, MCF7, 24 h, read-out: % Growth inhibition ± SEM MCF-7. The protocol: as §2, §3, §4
Series [6] concerns WI-38 human lung fibroblast cells. Nature of the series: MTT cytotoxicity assay on normal cells. The series is classed as cell-based. To be noted: Homo sapiens, WI-38; normal lung fibroblasts, MTT, 24 h, n = 3; read-out: IC50 (µM) ± SEM WI-38. The protocol:
All chemicals used in this study were analytical or cell-culture grade.
Cytotoxicity was measured using the MTT assay. […] The medium was aspirated and 150 μL DMSO was added to solubilise MTT formazan crystals. The plates were then shaken, and the optical density was determined at 570 nm using an ELISA plate reader (Model 550, Bio-Rad, Hercules, CA). At least three independent experiments were performed.

In the next series the test system is A549 lung cancer cells. As to the kind of experiment: Anti-proliferative MTT assay. To be noted: Homo sapiens, A549, 24 h; for inhibition at 10 µM: read-out: % Growth inhibition ± SEM A549; for IC50: read-out: IC50 (µM) ± SEM A549.
The subject of a further series is H441 lung cancer cells. As to the kind of experiment: Anti-proliferative MTT assay. To be noted: Homo sapiens, NCI-H441, 24 h; for inhibition at 10 µM: read-out: % Growth inhibition ± SEM H441; for IC50: read-out: IC50 (µM) ± SEM H441, MTT, 24 h, n = 3.

Compound `COc1ccc(C2CC(c3ccc(Cl)cc3Cl)=NN2c2nc(C)c(N=Nc3ccc(C)cc3)s2)cc1` (stereo not drawn) [Compound 13b, 2-(3-(2,4-Dichlorophenyl)-5-(4-methoxyphenyl)-4,5-dihydro-1H-pyrazol-1-yl)-4-methyl-5-(p-tolyldiazenyl)thiazole] showed a melting point of 170 to 171 °C. At EGFR, the IC50 stood at 179 nM. Also, the IC50 in series [1] worked out at 214 ± 4 nM. Besides, the inhibition at 10 µM in [2] is 5.1 ± 0.3%. Also, the inhibition at 10 µM in series [3] came out at 8.3 ± 0.9%. The inhibition at 10 µM in series [4] is 0.8 ± 0.2%. The inhibition at 10 µM in the series on HepG2 liver cancer cells worked out at 0.08%. In addition, the inhibition at 10 µM with K562 leukaemia cells was found to be 11 ± 0.6%. In addition, in the series with KG-1a leukaemia cells, the inhibition at 10 µM amounted to 7.1 ± 0.2%. In addition, in [5], the inhibition at 10 µM was 3.4 ± 0.5%. Moreover, the half-inhibitory concentration (IC50) in [6] is greater than 100 µM. For the same compound, in the series on A549 lung cancer cells, the inhibition at 10 µM was 16.2 ± 1.3% and the IC50 stood at 59.1 ± 3.2 µM. For the same compound, in the series with H441 lung cancer cells, the inhibition at 10 µM was determined as 23.3 ± 2.4% and the IC50 was determined as 24.2 ± 1.8 µM.

As for `COc1ccc(C2CC(c3ccc(Cl)cc3Cl)=NN2c2nc(C)c(N=Nc3ccc(Cl)cc3)s2)cc1` (stereo not drawn) [Compound 13c, 5-((4-Chlorophenyl)diazenyl)-2-(3-(2,4-dichlorophenyl)-5-(4-methoxyphenyl)-4,5-dihydro-1H-pyrazol-1-yl)-4-methylthiazole], the melting point was in the range of 170 to 171 °C. Besides, the IC50 on EGFR amounted to 134 ± 1.5 nM. The IC50 in [1] worked out at 173 ± 2.6 nM. In addition, the inhibition at 10 µM in [2] came out at 8.7 ± 1.9%. Moreover, the inhibition at 10 µM in series [3] is 1.1 ± 0.1%. For the same compound, the inhibition at 10 µM in series [4] worked out at 8.7 ± 0.6%. Further, in the series on HepG2 liver cancer cells, the inhibition at 10 µM came to 14.2 ± 1%. The inhibition at 10 µM in the series on K562 leukaemia cells was found to be 5.2 ± 0.9%. In addition, the inhibition at 10 µM in the series on KG-1a leukaemia cells stood at 12.4 ± 1.6%. In addition, the inhibition at 10 µM in [5] came to 10.4 ± 2.9%. Further, the IC50 in series [6] was found to be 91.4 ± 8.9 µM. In addition, in the series on A549 lung cancer cells, the inhibition at 10 µM turned out to be 14.8 ± 1% and the IC50 came to 46.3 ± 2.5 µM. In the series on H441 lung cancer cells, the inhibition at 10 µM was determined as 19.9 ± 1.7% and the half-maximal inhibitory concentration (IC50) turned out to be 33.5 ± 3.9 µM.

`COc1ccc(C2CC(c3ccc(Cl)cc3Cl)=NN2c2nc(C)c(N=Nc3ccccc3)s2)cc1OC` (stereo not drawn) [Compound 13d, 2-(3-(2,4-Dichlorophenyl)-5-(3,4-dimethoxyphenyl)-4,5-dihydro-1H-pyrazol-1-yl)-4-methyl-5-(phenyldiazenyl)thiazole] registered a melting point of 187 to 188 °C. Further, the IC50 at EGFR came out at 93.6 ± 3 nM. Also, the IC50 in series [1] turned out to be 336 ± 6.3 nM. Further, the inhibition at 10 µM in series [2] is 14.2 ± 2.2%. In [3], the inhibition at 10 µM is 22.3 ± 1.3%. Also, the inhibition at 10 µM in [4] was 10.1 ± 3.5%. In addition, in the series on HepG2 liver cancer cells, the inhibition at 10 µM turned out to be 18.6 ± 2.5%. Besides, the inhibition at 10 µM in the series with K562 leukaemia cells is 18.2 ± 1.8%. For the same compound, the inhibition at 10 µM in the series on KG-1a leukaemia cells was found to be 24.1 ± 2.7%. Moreover, the inhibition at 10 µM in [5] came out at 11.9 ± 1.8%. In series [6], the half-maximal inhibitory concentration (IC50) came out at 64.2 ± 2.8 µM. Besides, in the series on A549 lung cancer cells, the inhibition at 10 µM was found to be 12.6 ± 2.7% and the IC50 stood at 57.1 ± 4.1 µM. Moreover, in the series on H441 lung cancer cells, the inhibition at 10 µM came to 38.9 ± 2.4% and the IC50 came to 21.7 ± 1.3 µM.

Turning to `COc1ccc(C2CC(c3ccc(Cl)cc3Cl)=NN2c2nc(C)c(N=Nc3ccc(C)cc3)s2)cc1OC` (stereo not drawn) [Compound 13e, 2-(3-(2,4-Dichlorophenyl)-5-(3,4-dimethoxyphenyl)-4,5-dihydro-1H-pyrazol-1-yl)-4-methyl-5-(p-tolyldiazenyl)thiazole], the melting point lay within 176 to 177 °C. In addition, the IC50 at EGFR amounted to 67.7 ± 2 nM. Further, in series [1], the IC50 was 216 ± 4.3 nM. The inhibition at 10 µM in [2] came out at 12.5 ± 1.5%. In addition, the inhibition at 10 µM in [3] is 16.1 ± 0.9%. The inhibition at 10 µM in series [4] turned out to be 9.9 ± 0.8%. Also, the inhibition at 10 µM with HepG2 liver cancer cells was 0.3%. In the series with K562 leukaemia cells, the inhibition at 10 µM came out at 24 ± 2%. Further, in the series on KG-1a leukaemia cells, the inhibition at 10 µM was determined as 15.2 ± 1.8%. In series [5], the inhibition at 10 µM was determined as 1.8 ± 0.6%. The IC50 in series [6] came to 87 ± 4.2 µM. In the series on A549 lung cancer cells, the inhibition at 10 µM was determined as 30.3 ± 2.4% and the IC50 came out at 19.1 ± 1.3 µM. Also, in the series with H441 lung cancer cells, the inhibition at 10 µM stood at 46.9 ± 3.9% and the IC50 was found to be 15.2 ± 3.6 µM.
